Like-named read-outs stand apart in the source and are kept apart here.
Assays:
liver hepatocyte growth = experiment: Test (c): in vivo inhibition of TGFα-stimulated liver hepatocyte growth in male rats (BrdU uptake); parameters: species or system rat; details: for ED50: Rattus norvegicus, Hepatocyte, read-out: ED50 in Test (c), inhibition of liver hepatocyte proliferation
Procedure: (c) An in vivo assay in a group of male rats which determines the ability of a test compound (usually administered orally as a ball-milled suspension in 0.5% polysorbate) to inhibit the stimulation of liver hepatocyte growth caused by the administration of the growth factor TGFα (400 μg/kg subcutaneously, usually dosed twice, 3 and 7 hours respectively after the administration of the test compound).
Cell-growth in the control and test animals is determined as follows:
On the morning of the day after the dosing of the test compound (or 0.5% polysorbate in the control group), the animals are dosed with bromodeoxyuridine (BrdU; 100 mg/kg intraperitoneally). The animals are killed four hours later and the livers are excised. […] Further tests were carried out using a range of doses of the test compounds to allow the calculation of an approximate ED50 value for the inhibition of liver hepatocyte proliferation as determined by inhibition of the uptake of BrdU.

KB cells = experiment: Test (b): in vitro inhibition of growth of human naso-pharyngeal cancer cell line KB (EGF, MTT); type: cell-based; details: 72 h, read-out: IC50 in Test (b), inhibition of KB cell growth
Procedure: (b) An in vitro assay which determines the ability of a test compound to inhibit the growth of the human naso-pharyngeal cancer cell line KB.
KB cells were seeded into wells at a density of 1×10^4 -1.5×10^4 cells per well and grown for 24 hours in DMEM supplemented with 5% FCS (charcoal-stripped). Cell growth was determined after incubation for 3 days by the extent of metabolism of MTT tetrazolium dye to furnish a bluish colour. Cell growth was then determined in the presence of EGF (10 ng/ml) or in the presence of EGF (10 ng/ml) and a test compound at a range of concentrations. An IC50 value could then be calculated.

receptor tyrosine kinase = molecular target: T1, receptor tyrosine kinase (Homo sapiens, UniProt P00533); experiment: Test (a): in vitro receptor tyrosine kinase inhibition (enzyme from A-431 cells, 32P-ATP/peptide phosphorylation, with EGF); type: biochemical
T1 construct: The supernatant, containing solubilised receptor tyrosine kinase, was stored in liquid nitrogen; endogenous in cells; host or cells: A-431 cells (human vulval carcinoma), solubilised membrane fraction
Procedure: A-431 cells were grown to confluence using Dulbecco's modified Eagle's medium (DMEM) containing 5% fetal calf serum (FCS). The obtained cells were homogenised in a hypotonic borate/EDTA buffer at pH 10.1. The homogenate was centrifuged at 400 g for 10 minutes at 0°-4° C. The supernatant was centrifuged at 25,000 g for 30 minutes at 0°-4° C. The pelleted material was suspended in 30 mM Hepes buffer at pH 7.4 containing 5% glycerol, 4 mM benzamidine and 1% Triton X-100, stirred for 1 hour at 0°-4° C., and recentrifuged at 100,000 g for 1 hour at 0°-4° C. The supernatant, containing solubilised receptor tyrosine kinase, was stored in liquid nitrogen.
For test purposes 40 μl of the enzyme solution so obtained was added to a mixture of 400 μl of a mixture of 150 mM Hepes buffer at pH 7.4, 500 μM sodium orthovanadate, 0.1% Triton X-100, 10% glycerol, 200 μl water, 80 μl of 25 mM DTT and 80 μl of a mixture of 12.5 mM manganese chloride, 125 mM magnesium chloride and distilled water. There was thus obtained the test enzyme solution. […]
The test compound/EGF mixture solution (5 μl) was added to the test enzyme solution (10 μl) and the mixture was incubated at 0°-4° C. for 30 minutes. […] Radioactivity present in the filter paper was measured using a liquid scintillation counter (Sequence A). […]
Receptor tyrosine kinase inhibition was calculated as follows: [formula]

[1] = test system: carcinoma which does not express EGF receptor tyrosine kinase; details: Toi et al., 1990; cited from earlier work
[2] = test system: human mammary carcinoma which expresses epidermal growth factor (EGF) receptor tyrosine kinase; details: athymic nude mice; Toi et al., 1990; cited from earlier work
[3] = male rats, usually oral, TGFα 400 μg/kg subcutaneously, BrdU uptake

T1 sequence (P00533 25-1210): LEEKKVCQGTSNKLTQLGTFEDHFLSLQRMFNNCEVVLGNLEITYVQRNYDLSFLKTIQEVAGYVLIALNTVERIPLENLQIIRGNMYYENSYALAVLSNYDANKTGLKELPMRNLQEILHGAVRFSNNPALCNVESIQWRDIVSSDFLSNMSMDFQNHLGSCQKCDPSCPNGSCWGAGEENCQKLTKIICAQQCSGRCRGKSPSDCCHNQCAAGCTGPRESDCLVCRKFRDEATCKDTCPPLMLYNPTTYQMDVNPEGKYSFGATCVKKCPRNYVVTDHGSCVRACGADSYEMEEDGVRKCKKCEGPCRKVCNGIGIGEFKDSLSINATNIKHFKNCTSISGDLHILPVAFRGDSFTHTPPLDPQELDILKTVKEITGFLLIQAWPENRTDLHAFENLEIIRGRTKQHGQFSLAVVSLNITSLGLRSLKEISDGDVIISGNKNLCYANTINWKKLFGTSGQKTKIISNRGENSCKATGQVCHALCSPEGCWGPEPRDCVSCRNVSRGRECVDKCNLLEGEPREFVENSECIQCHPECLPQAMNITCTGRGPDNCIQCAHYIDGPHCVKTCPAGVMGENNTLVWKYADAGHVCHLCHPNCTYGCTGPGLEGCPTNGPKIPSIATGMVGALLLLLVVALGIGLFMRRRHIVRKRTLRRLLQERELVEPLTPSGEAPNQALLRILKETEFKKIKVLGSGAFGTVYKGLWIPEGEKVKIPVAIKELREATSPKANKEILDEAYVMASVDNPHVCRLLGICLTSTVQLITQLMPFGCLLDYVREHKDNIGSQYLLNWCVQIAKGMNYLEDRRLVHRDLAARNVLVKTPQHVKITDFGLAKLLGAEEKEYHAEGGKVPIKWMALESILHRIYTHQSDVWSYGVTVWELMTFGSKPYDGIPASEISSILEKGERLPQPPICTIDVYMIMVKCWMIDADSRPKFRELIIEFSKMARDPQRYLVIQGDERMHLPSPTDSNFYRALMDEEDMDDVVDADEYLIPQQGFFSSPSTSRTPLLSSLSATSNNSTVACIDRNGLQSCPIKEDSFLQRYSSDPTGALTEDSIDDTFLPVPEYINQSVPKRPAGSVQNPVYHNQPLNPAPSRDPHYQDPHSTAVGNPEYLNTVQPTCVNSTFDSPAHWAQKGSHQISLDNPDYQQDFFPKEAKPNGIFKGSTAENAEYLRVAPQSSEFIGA
T1 sequence (P01133 971-1023 partner limits assumed): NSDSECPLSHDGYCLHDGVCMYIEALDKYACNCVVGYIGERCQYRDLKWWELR

| Compound | ED50 (liver hepatocyte growth; [3]) [mg/kg] | IC50 (receptor tyrosine kinase) [nM] | IC50 (KB cells; EGF (10 ng/ml), 3 days, MTT) [nM] | also measured |
| --- | --- | --- | --- | --- |
| COc1cc2ncnc(Nc3ccc4c(c3)CCC4)c2cc1OC [6,7-dimethoxy-4-(5-indanylamino)quinazoline] |  |  |  | ED50 (liver hepatocyte growth; po): 1 to 5 mg/kg; IC50 (KB cells): 650 nM |
| COc1cc2ncnc(Nc3ccc4[nH]ccc4c3)c2cc1OC [6,7-dimethoxy-4-(5-indolylamino)quinazoline] | 1 to 5 | 1 | 400 |  |
| COc1cc2ncnc(Nc3cccc4ncccc34)c2cc1OC [6,7-dimethoxy-4-(5-quinolylamino)quinazoline] | ~2 | 60 | 1800 |  |
| O=CN/C=C/c1cc(O)ccc1O [erbstatin] |  |  |  | effect on growth of another carcinoma which does not express EGF receptor tyrosine kinase [1]: without effect; effect on growth of transplanted human mammary carcinoma expressing EGF receptor tyrosine kinase [2]: specifically attenuates the growth |
| TGFα: the growth factor TGFα [reference compound] |  |  |  | stimulation of liver hepatocyte growth (liver hepatocyte growth; control group of rats, TGFα 400 μg/kg subcutaneously, on average): 5 fold |

Source: patent US5580870A, “Quinazoline derivatives” (Zeneca Limited, priority 1992, dated 1996)
